Experimental data reported in patent publication US12097182B2, “Compounds and methods for treatment of inflammatory bowel disease with extra-intestinal manifestations” (Arena Pharmaceuticals, Inc., priority 2017, dated 2024).

Tests used:
[1] = test system: collagen induced arthritis (CIA); settings: cited from earlier work
[2] = test system: experimental autoimmune encephalomyelitis (EAE); settings: up to day 25, when dosing was discontinued; cited from earlier work
lymphocyte = assay: Single and multiple ascending dose studies in healthy subjects; assay type: in vivo
chronic plaque psoriasis = settings: cited from earlier work

For `O=C(O)C[C@H]1CCc2c1[nH]c1ccc(OCc3ccc(C4CCCC4)c(C(F)(F)F)c3)cc21` [Compound 1, (R)-2-(7-(4-cyclopentyl-3-(trifluoromethyl)benzyloxy)-1,2,3,4-tetrahydrocyclopenta[b]indol-3-yl)acetic acid], the “ankle diameters in CIA” value ([1]; prophylactic daily oral dose, day 17, similar to fingolimod or methotrexate) is listed as “significant reduction in ankle diameters”, the “histological parameters in knees and ankles of CIA rats” value ([1]; rat, in vivo) is listed as “Improvement in histological parameters” and the “EAE disease onset and severity, prophylactic administration” value [2] is listed as “prevented the onset and severity of disease relative to vehicle”. For the same compound, the “lymphocyte lowering in healthy subjects” value (lymphocyte) was “demonstrated the lymphocyte lowering capabilities”.

In the case of `CCC/N=C1\S/C(=C\c2ccc(OC[C@H](O)CO)c(Cl)c2)C(=O)N1c1ccccc1C` [ponesimod], the “severity of chronic plaque psoriasis” value (chronic plaque psoriasis; chronic oral administration, phase 2) is listed as “reduce the severity of chronic plaque psoriasis” and the associated adverse events (chronic plaque psoriasis; phase 2 psoriasis study) is listed as “dyspnea, elevated liver enzymes, bradycardia, headache and dizziness”.
